Results published in ChEMBL document CHEMBL1145726, “Structure-based design of agents targeting the bacterial ribosome” (Bioorg Med Chem Lett, 2003).
Values after ≈ are worked out from the molar mass of the structure shown.

Assays:
Format in all cases: functional
[1] = Inhibition of L11BD (L11 binding domain) 58-mer methylation of A1067 at 50 uM
[2] = tested on: Escherichia coli; test: In vitro antibacterial activity was determined
[3] = tested on: Nucleic Acid; test: % Inhibition of rRNA methylation at 50 uM
[4] = tested on: Escherichia coli; test: In vitro inhibition of protein translation in Escherichia coli
[5] = tested on: Escherichia coli; test: Inhibitory concentration of compound against Escherichia coli in vitro protein translation

SMILES	inhibition [1] [%]	MIC95 [2] [µg/mL]	inhibition [3] [%]	Inhibition [4] [%]	IC50 [5] [nM]
CC[C@@H](NC(=O)[C@@H](NC(=O)c1csc(-c2ccccc2)n1)[C@@H](C)O)c1nc(C(=O)NCc2ccc3c(c2)OCO3)cs1	28	> 200	13	31	–
C[C@H](O)[C@H](NC(=O)c1csc(-c2ccccc2)n1)c1nc(C(=O)N2CCN(CCOCCO)CC2)cs1	59	> 200	–	–	–
C=C(NC(=O)C(=C)NC(=O)c1csc(C2=N[C@@H]3c4csc(n4)[C@H]4NC(=O)c5csc(n5)[C@H]([C@](C)(O)[C@@H](C)O)NC(=O)[C@H]5CSC(=N5)/C(=C/C)NC(=O)[C@H]([C@@H](C)O)NC(=O)c5csc(n5)[C@]3(CC2)NC(=O)[C@H](C)NC(=O)C(=C)NC(=O)[C@H](C)NC(=O)[C@H]([C@@H](C)CC)N[C@@H]2C=Cc3c([C@H](C)O)cc(nc3[C@H]2O)C(=O)O[C@@H]4C)n1)C(N)=O [THIOSTREPTON]	–	0.015 (≈ 0.00901 µM)	–	98	100

The next lines start with results.

inhibition [1] [%]	MIC95 [2] [µg/mL]	SMILES	inhibition [3] [%]	Inhibition [4] [%]	IC50 [5] [nM]
35	> 200	C[C@H](O)[C@@H](NC(=O)[C@@H](NC(=O)c1csc(-c2ccccc2)n1)[C@@H](C)O)c1nc(C(=O)O)cs1	27	–	–
37	> 200	CC(C)[C@@H](NC(=O)[C@@H](NC(=O)c1csc(-c2ccccc2)n1)[C@@H](C)O)c1nc(C(=O)NCCCO)cs1	37	48	–
24	> 200	CC(C)[C@@H](NC(=O)[C@@H](NC(=O)c1csc(-c2ccccc2)n1)[C@@H](C)O)c1nc(C(=O)NCc2ccc3c(c2)OCO3)cs1	20	16	–
